Assay results reported in US8242152B2, “Use of 4-[(4-thiazolyl)phenoxy]alkoxy-benzamidine derivatives for the prophylaxis and treatment of osteoporosis” (Dong Wha Pharmaceutical Co., Ltd., priority 2001, dated 2012).

How the values were obtained:
[1] = tested on: sciatic nerve neurectomized ddY mice; assay: Prophylactic effects in neurectomized ddY mouse model (immobilization osteoporosis); assay type: in vivo; conditions: for TBV (%): epiphyseal regions of right tibia; for Cbt (um): mid-shaft regions of right tibia
Description: The effects of a drug would be based on histomorphometric changes of trabecular bone and thickness of cortical bone in this model.
The objective of the present study is to observe the anti-osteoporotic potential of DW1350MSA, and administration of the drug was initiated 2 days after neurectomy for prophylaxis study.
(§1) Twenty-five female ddY mice (6-wk old upon receipt, SLC, Japan) were used after acclimatization for 7 days. Animals were allocated to 5 per polycarbonate cage in a temperature (20-25° C.) and humidity (30-35%) controlled room. Light:dark cycle was 12 hr:12 hr and feed (Samyang, Korea) and water were supplied free to access. 20 mice were neurectomized and 5 mice were sham operated. For the prophylaxis study, treatment was initiated 2 days after neurectomy and then each sample was administrated for 4 weeks.
DW1350MSA was dissolved in injectable distilled water and administered at a dosage volume of 10 ml/kg by oral gavage. The administered dose and schedule of these drugs are shown as Table 12.
3) Operation • A. Sham operation: The right side of the sciatic nerve was exposed by incision of skin and hip muscles, (about 1 cm) after that closed by skin suture. • B. neurectomy: After exposure of the right side of the sciatic nerve, about 1 mm of sciatic nerve was removed. After that closed by routine methods. • C. Operation was conducted under Ketamine hydrochloride (M.W.=256.8; 23076-35-9, ICN Biochemicals Inc., USA) and Xylazine hydrochloride (M.W.=274.19; 116-00512, Wako Pure Chemical Industries Ltd., Japan) anesthesia.
After that, embedded in paraffin, sectioned (3˜4 um) and stained with hematoxylin-eosin strain.
Mid-shaft cortical bone of tibia, and trabecular bone volume % of tibia were evaluated. In addition, histological profiles of epiphyseal regions of right tibia and femur were also observed. • A. Measurement of trabecular bone volume (TBV) Trabecular bone volume was calculated using automated image analysis (analySIS Image Processing; SIS, Germany) under magnification […] (×200) of microscopy (Zeiss, Germany) in the uniform area of epiphyseal regions of the right tibia and/or femur (growth plate regions were excluded). Trabecular bone volume was calculated as percentage levels. • B. Thickness of cortical bone (Cbt): Cortical bone thickness was detected in mid-shaft regions of right tibia and/or femur, and they were calculated using an automated image analyzer (analysis Image Processing; SIS, Germany) under magnification 200 (×200) of microscopy (Zeiss, Germany) at prepared histological samples. The thickness was detected as um levels. • C.
(§2) All data was calculated as mean±S.D. Statistical analyses was conducted using Mann-Whitney U-Wilcoxon Rank Sum W test (M-W test) with SPSS for Windows (Release 6.1.3., SPSS Inc., USA).

ovariectomized ddY mice = assay: Prophylactic effects in ovariectomized ddY mouse model (estrogen-deficient osteoporosis); assay type: in vivo
Description: The effects of a drug would be based on histomorphometric changes of trabecular bone and thickness cortical bone in this model.
The objective of present study is to observe the prophylactic effect of DW1350MSA, and administration of drug was initiated 3 days after ovariectomy for prophylaxis study.
as §1, with “allocated” for “allocated to”, “were ovariectomized” for “were neurectomized”, “For” for “For the”, “initiated 3” for “initiated 2”, “after ovariectomy” for “after neurectomy”, “for 6” for “for 4”
DW1350MSA was dissolved in injectable distilled water and administered at a dosage volume of 10 ml/kg by oral gavage.
3) Operation • A. Sham operation: Bilateral ovaries were exposed by incision of skin and abdominal muscles, (about 3 cm) after that closed by skin suture. • B. Ovariectomy: After exposure of bilateral ovaries, they were removed. After that closed by routine methods. • C. Operation was conduct under Ketamine hydrochloride (M.W.=256.8; 23076-35-9, ICN Biochemicals Inc., USA) and Xylazine hydrochloride (M.W.=274.19; 116-00512, Wako Pure Chemical Industries Ltd., Japan) anesthesia.
After that, embedded in paraffin, sectioned (3˜4 um) and stained with hematoxylin-eosin stain.
Histomorphometric changes of tibia and femur were evaluated. All histomorphometric indices including trabecular bone volume (TBV, %), thickness of trabecular bone (Tbt), trabecular bone number (Tbn), and length of trabeculer bone (Tbl) were calculated using automated image analysis (analysis Image Processing; SIS, Germany) under magnification 200 (×200) of microscopy (Zeiss, Germany) in the epiphyseal regions of right tibia and/or femur. In addition, cortical bone thickness (Cbt) was measured in mid-shaft region of right tibia and femur. […] Trabecular bone volume was calculated as percentage levels. • B. Measurement of histomorphometric index of trabecular bone: Thickness of trabecular bone (Tbt), trabecular bone number (Tbn), and length of trabecular bone (Tbl) were calculated using automated image analysis in the epiphyseal regions of right tibia and/or femur. Tbt and Tbl were calculated as um levels, and Tbn were calculated as number/whole sectional part of epiphyseal regions levels. • C. Thickness of cortical bone (Cbt): Cortical bone thickness was detected in mid-shaft regions of right tibia and/or femur, and they were calculated using automated image analyzer at prepared histological samples.
as §2

[2] = 10 mg/kg oral once a day for 4 weeks
[3] = 50 mg/kg oral once a day for 4 weeks
[4] = right tibia, Fosamax 1 mg/kg, DW1350MSA 10 and 50 mg/kg
[5] = right femur, 10 mg/kg oral once a day for 6 weeks (F10, D10)
[6] = right femur, 50 mg/kg oral once a day for 6 weeks (D50)
[7] = right tibia, 10 mg/kg oral once a day for 6 weeks (F10, D10)
[8] = right tibia, 50 mg/kg oral once a day for 6 weeks (D50)
[9] = tibia and femur, DW1350MSA 10 and 50 mg/kg, Fosamax 10 mg/kg

CS(=O)(=O)O.Cc1nc(-c2ccc(OCCCCCOc3ccc(C(N)=NO)cc3)cc2)c(C(C)C)s1 [DW1350MSA]
TBV (%) [1, 2]: 25.75 ± 2.87 # %
Cbt (um) [1, 2]: 171.36 ± 18.60 # um
TBV (%) [1, 3]: 33.29 ± 4.96 %
Cbt (um) [1, 3]: 193.87 ± 12.50 um
histological profiles of epiphyseal regions ([1]; FIG. 10, Hematoxylin-Eosin): relatively well developed, especially in width and number, trabecular bone was detected
TBV % compared to control group (in words) [1, 4]: significant dose-dependent (p<0.01) increase of trabecular bone volume %
cortical bone thickness compared to control group (in words) [1, 4]: significant dose-dependent (p<0.01) increase of cortical bone thickness
histological profiles of epiphyseal regions of right tibia and femur (ovariectomized ddY mice; FIG. 11): relatively well developed, especially in width and length, trabecular bone was detected
Cbt, cortical bone thickness (ovariectomized ddY mice; [5]): 118.00 ± 16.79 um
Ocn, osteoclast cell number (ovariectomized ddY mice; [5]): 5.00 ± 1.58 number
TBV, trabecular bone volume (ovariectomized ddY mice; [5]): 36.97 ± 9.59 # %
Tbl, trabecular bone length (ovariectomized ddY mice; [5]): 635.60 ± 190.76 um
Tbn, trabecular bone number (ovariectomized ddY mice; [5]): 19.00 ± 1.58 number/epiphyseal
Tbt, trabecular bone thickness (ovariectomized ddY mice; [5]): 48.60 ± 10.50 ## um
Cbt, cortical bone thickness (ovariectomized ddY mice; [6]): 140.26 ± 33.16 um
Ocn, osteoclast cell number (ovariectomized ddY mice; [6]): 4.40 ± 1.34 number
TBV, trabecular bone volume (ovariectomized ddY mice; [6]): 41.91 ± 6.04 # %
Tbl, trabecular bone length (ovariectomized ddY mice; [6]): 743.40 ± 187.00 um
Tbn, trabecular bone number (ovariectomized ddY mice; [6]): 21.80 ± 1.92 number/epiphyseal
Tbt, trabecular bone thickness (ovariectomized ddY mice; [6]): 68.00 ± 21.41 um
Cbt, cortical bone thickness (ovariectomized ddY mice; [7]): 136.80 ± 26.58 # um
Ocn, osteoclast cell number (ovariectomized ddY mice; [7]): 5.40 ± 1.52 # number
TBV, trabecular bone volume (ovariectomized ddY mice; [7]): 35.20 ± 4.90 # %
Tbl, trabecular bone length (ovariectomized ddY mice; [7]): 605.00 ± 160.44 ## um
Tbn, trabecular bone number (ovariectomized ddY mice; [7]): 11.80 ± 3.11 # number/epiphyseal
Tbt, trabecular bone thickness (ovariectomized ddY mice; [7]): 60.80 ± 13.20 # um
Cbt, cortical bone thickness (ovariectomized ddY mice; [8]): 170.40 ± 44.73 um
Ocn, osteoclast cell number (ovariectomized ddY mice; [8]): 3.60 ± 1.14 # number
TBV, trabecular bone volume (ovariectomized ddY mice; [8]): 38.42 ± 4.67 # %
Tbl, trabecular bone length (ovariectomized ddY mice; [8]): 679.20 ± 249.47 um
Tbn, trabecular bone number (ovariectomized ddY mice; [8]): 11.80 ± 3.96 # number/epiphyseal
Tbt, trabecular bone thickness (ovariectomized ddY mice; [8]): 112.60 ± 45.76 um
effect on decrease of Cbt induced by ovariectomy (summary in words) (ovariectomized ddY mice; [9]): significant effect to inhibit the decrease of Cbt induced by ovariectomy and the efficacy was higher than that of Fosamax
effect on decrease of TBV induced by ovariectomy (summary in words) (ovariectomized ddY mice; [9]): some significance effect to inhibit the decrease of TBV induced by ovariectomy but the efficacy was somewhat lower than that of Fosamax
effect on decrease of Tbl induced by ovariectomy (summary in words) (ovariectomized ddY mice; [9]): significant effect to inhibit the decrease of Tbl induced by ovariectomy and the efficacy was somewhat higher than that of Fosamax
effect on decrease of Tbn induced by ovariectomy (summary in words) (ovariectomized ddY mice; [9]): significance effect to inhibit the decrease of Tbn induced by ovariectomy and the efficacy was somewhat lower than that of Fosamax
effect on decrease of Tbt induced by ovariectomy (summary in words) (ovariectomized ddY mice; [9]): significance effect to inhibit the decrease of Tbt induced by ovariectomy and the efficacy was somewhat higher than that of Fosamax
effect on increase of Ocn induced by ovariectomy (summary in words) (ovariectomized ddY mice; [9]): significant effect to inhibit the increase of Ocn induced by ovariectomy and the efficacy was higher than that of Fosamax
